Literature values as cited in patent US20070105758A1 (priority 2005, published 2007).

Conditions: oral route in sensitive individuals

For `NCCc1c[nH]cn1` [histamine], the “histamine concentration known to be biologically active” value is given as over 5 nM.
